Measurements from EP0724571B1, “SUBSTITUTED PYRIDINE-2-ONES AND SUBSTITUTED PYRIDINE-2-THIONES AS BIOCIDES” (Arch Chemicals, Inc., priority 1993, dated 1995).
Values after ≈ are worked out from the molar mass of the structure shown.

Tests used:
Experiment in all cases: Minimum Inhibitory Concentration (MIC), broth serial dilution
Type in all cases: cell-based
Aspergillus niger = conditions: 168 h; E=Aspergillus niger; Sabouraud Dextrose Broth, 10^5 cells or spores/ml, 28°C, molds incubated seven days
Procedure: (§1) Solutions of the experimental compounds in dimethyl sulfoxide were serially diluted in nutrient broth (Tryptic Soy Broth for bacteria and Sabouraud Dextrose Broth for fungi) in microliter plates. Equal volumes of a broth suspension of bacteria (10^6 CFU/ml) or fungi (10^5 cells or spores/ml) were added to each dilution, and the plates were incubated at 37°C (bacteria and yeast) or 28°C (molds). Bacteria, yeast and molds were incubated two, five and seven days respectively before determining the highest inhibitory dilution.

Aureobasidium pullulans = conditions: F=Aureobasidium pullulans; Sabouraud Dextrose Broth, 10^5 cells or spores/ml
Procedure: as §1

Escherichia coli = conditions: 48 h; A=Escherichia coli; Tryptic Soy Broth, 10^6 CFU/ml, 37°C, bacteria incubated two days
Procedure: as §1

Candida albicans = conditions: 120 h; C=Candida albicans; Sabouraud Dextrose Broth, 10^5 cells or spores/ml, 37°C, yeast incubated five days
Procedure: as §1

Staphylococcus aureus = conditions: 48 h; B=Staphylococcus aureus; Tryptic Soy Broth, 10^6 CFU/ml, 37°C, bacteria incubated two days
Procedure: as §1

Fusarium sp. = conditions: 168 h; D=Fusarium sp.; Sabouraud Dextrose Broth, 10^5 cells or spores/ml, 28°C, molds incubated seven days
Procedure: as §1

Structure (SMILES)	MIC (Aspergillus niger) [µg/mL]	MIC (Aureobasidium pullulans) [µg/mL]	MIC (Escherichia coli) [µg/mL]	MIC (Candida albicans) [µg/mL]	MIC (Staphylococcus aureus) [µg/mL]	MIC (Fusarium sp.) [µg/mL]
CCCCCCCCOc1cccc(=S)n1O [Example 3, 1-hydroxy-6-octyloxypyridine-2(1H)-thione]	8 (≈ 31.3 µM)	16 (≈ 62.7 µM)	16 (≈ 62.7 µM)	4 (≈ 15.7 µM)	16 (≈ 62.7 µM)	4 (≈ 15.7 µM)
Cc1cc(CC(C)CC(C)(C)C)n(O)c(=O)c1 (stereo not drawn) [OCTOPIROX® biocide, reference compound]	2 (≈ 8.43 µM)	16 to 32 (≈ 67.4 to 135 µM)	128 (≈ 539 µM)	2 (≈ 8.43 µM)	64 (≈ 270 µM)	2 (≈ 8.43 µM)
CCCCCCCCOc1cccc(=O)n1O [Example 2, 1-Hydroxy-6-octyloxypyridine-2(1H)-one]	32 (≈ 134 µM)	4 (≈ 16.7 µM)	32 (≈ 134 µM)	4 (≈ 16.7 µM)	16 (≈ 66.9 µM)	2 (≈ 8.36 µM)
CC(CCOc1cccc(=O)n1O)CC(C)(C)C (stereo not drawn) [Example 1, 1-Hydroxy-6-(3,5,5-trimethylhexyloxy)-pyridine-2(1H)-one]	16 (≈ 63.2 µM)	2 (≈ 7.89 µM)	32 (≈ 126 µM)	2 (≈ 7.89 µM)	32 (≈ 126 µM)	2 (≈ 7.89 µM)
